Measured values taken from the supplement of paper PMC11061612.

Assays:
Experiment in all cases: combination Emax (second highest fraction inhibited in the dose matrix, 72 h); higher = more inhibition; extreme values may be limits of the assay
[1] = tested on: PC-14 (Lung Adenocarcinoma)
In short: (§1)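 After 24 hours at 37°C and 5% CO2 in 1536-well plates, cells in DMEM/F12 or RPMI plus 10% FBS received two-drug dose matrices for 72 hours. Viability came from CellTiter-Glo 2.0 luminescence and was scaled as inhibition, anchored at 0 by vehicle wells and at 1 by blank wells. Combination Emax is taken as the second-highest inhibition in the matrix, and Bliss excess as the observed combination effect less EA + EB − EA·EB, with EA and EB the single-agent effects.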

[2] = tested on: COLO-684 (Endometrial Carcinoma)
In short: as §1

[3] = tested on: SW684 (Other Solid Carcinomas)
In short: as §1

[4] = tested on: LOUCY (T-Lymphoblastic Leukemia)
In short: as §1

[5] = tested on: KYM-1 (Rhabdomyosarcoma)
In short: as §1

[6] = tested on: HCC-44 (Lung Adenocarcinoma)
In short: as §1

[7] = tested on: EB-3 (Burkitt's Lymphoma)
In short: as §1

[8] = tested on: NCI-H1755 (Lung Adenocarcinoma)
In short: as §1

[9] = tested on: Becker (Low Grade Glioma)
In short: as §1

[10] = tested on: SJRH30 (Rhabdomyosarcoma)
In short: as §1

[11] = tested on: NKM-1 (Acute Myeloid Leukemia)
In short: as §1

[12] = tested on: KYSE-70 (Esophageal Squamous Cell Carcinoma)
In short: as §1

[13] = tested on: SK-MM-2 (Plasma Cell Myeloma)
In short: as §1

[14] = tested on: PANC-02-03 (Pancreatic Carcinoma)
In short: as §1

[15] = tested on: NCI-H810 (Non-Small Cell Lung Carcinoma)
In short: as §1

[16] = tested on: CHL-1 (Melanoma)
In short: as §1

[17] = tested on: ES-2 (Ovarian Carcinoma)
In short: as §1

[18] = tested on: CML-T1 (Chronic Myelogenous Leukemia)
In short: as §1

[19] = tested on: RMG-I (Ovarian Carcinoma)
In short: as §1

[20] = tested on: OV-90 (Ovarian Carcinoma)
In short: as §1

CS(=O)(=O)CCNCc1ccc(-c2ccc3ncnc(Nc4ccc(OCc5cccc(F)c5)c(Cl)c4)c3c2)o1 [Lapatinib] + NC1(c2ccc(-c3nc4ccn5c(=O)[nH]nc5c4cc3-c3ccccc3)cc2)CCC1 [MK-2206] (first compound max 10 µM, 7x7, partner max 10 µM)
combination Emax [1]: 0.993
combination Emax [2]: 0.893
combination Emax [3]: 0.686
combination Emax [4]: 0.912
combination Emax [5]: 0.945
combination Emax [6]: 0.852
combination Emax [7]: 0.937
combination Emax [8]: 0.88
combination Emax [9]: 0.808
combination Emax [10]: 0.914
combination Emax [11]: 0.94
combination Emax [12]: 0.613
combination Emax [13]: 0.52
combination Emax [14]: 0.643
combination Emax [15]: 0.389
combination Emax [16]: 0.5
combination Emax [17]: 0.936
combination Emax [18]: 0.948
combination Emax [19]: 0.679
combination Emax [20]: 0.623
